The record followed here is patent US20190192559A1, “COMBINATION OF PROTEASOME INHIBITORS AND ANTI-CD30 ANTIBODIES” (Millennium Pharmaceuticals, Inc., priority 2016, published 2019).

Common to all, as to assay type: in vivo
Assay [1] relates to SUDHL-2 tumor cells (CD30+ human large cell lymphoma cell line). The assay can be described thus: SUDHL-2 subcutaneous xenograft tumor efficacy model in CB17-SCID mice. The conditions noted are these: for Average tumor volume day 24: in mm³ (unit assumed). Here is the method:
SUDHL-2 (2×10^6) tumor cells in RPMI-1640 media were aseptically injected into the subcutaneous space in the right dorsal flank of CB17-SCID female mice (Shanghai SLAC Laboratory Animal Co., LTD). SUDHL-2 is a CD30+ human large cell lymphoma cell line and was obtained from ATCC (Manassas, Va.).
(§1) Brentuximab vedotin (SGN-35), one vial (Seattle Genetics, 50 mg) was reconstituted in 50 ml 0.9% saline to give a stock solution of 1 mg/ml. The stock solution was then diluted again in 0.9% saline to reach the desired concentration and administered by intraperitoneal injection (IP) on q4D schedule for 21 days (SR-786), 14 days (Karpas-299) or 24 days (SUDHL-2) at 0.2 mg/kg, 0.4 mg/kg and 0.8 mg/kg.
(§2) The compound of formula (IIIa) was formulated in either 5% hydroxypropyl-beta-cyclodextrin (for SR-786 and Karpas-299 studies) or in 20% hydroxypropyl-beta-cyclodextrin for SUDHL-2 study. The amounts listed below in Tables 1a-3b are calculated based on the compound of formula (IV). The drug was administered by IV injection (1 cc syringe, 20-22 gauge) on BIW schedule at either 2 mg/kg or 8 mg/kg for 21 days (SR-786), 14 days (Karpas-299), or 24 days (SUDHL-2).
(§3) Tumors were measured twice weekly using a vernier caliper. Tumor volumes were calculated using standard procedures (0.5×(length×width^2)). When the tumors reached a volume of approximately 200 mm^3 for SR-786, 150 mm^3 for Karpas-299 and SUDHL-2, mice were randomized into 7-8 groups as described in the tables below, and injected with vehicle, compound of formula (IV) or SGN-35 or the combination of compound of formula (IV) with SGN-35, at various doses as described below in Tables 1a, 2a and 3a. Tumor size and body weight were measured approximately twice a week for the duration of the study. Mice were euthanized when their tumor volume reached 10% of their body weight, or when the average tumor volume of a treatment or control group reached approximately 2000 mm^3. Tumor growth continued to be monitored after the dosing period in this study. Tumor volume on study day 21 for all groups is shown in table 1a for SR-786 study; on study day 14 for all groups for Karpas-299 study in table 2a and on study day 24 for all groups for SUDHL-2 study in table 3a. Average tumor volume is reported as a function of time for all groups in FIG. 1 (SR-786), FIG. 2 (Karpas-299) and FIG. 3 (SUDHL-2). Tumor volumes were reported till the end of the study to capture re-growth.
(§4) The synergy analysis is based on the tumor volume data from day 0 to 21 for SR-786, days 0 to 14 for Karpas-299 and days 0 to 24 for SUDHL-2 and presented in table 1b, 2b and 3b. Volume measurements below 25 cubic mm are excluded from the analysis because very low volumes cannot be measured accurately. The remaining measurements are log transformed and fit to a simple linear model with the measurement day as a covariate. The data are fit separately for the different animals to yield an estimated tumor growth rate for each animal in each treatment group. Based on the growth rates, the synergy score for the combination of agents A and B is defined as
(§5) 100*(mean(μAB)−mean(μA)−mean(μB)+mean(μctl))/mean(μctl):
(§6) where μAB, μA, μB, and μctl are the mean tumor growth rates for animals in the combination group, the A group, the B group, and the control group, respectively. The standard error of the synergy score is computed based on the variation in the growth rates among the animals. […] If the P-value is above 0.05, then the combination is considered to be additive. If the P-value is below 0.05, and the synergy score is less than zero, then the combination is considered to be synergistic. […] Otherwise, the combination is classified as antagonistic.

The subject of assay [2] is Karpas-299 tumor cells (CD30+ human large T cell lymphoma cell line). The assay can be described thus: Karpas-299 subcutaneous xenograft tumor efficacy model in CB17 SCID mice. To be noted: for Average tumor volume day 14: in mm³ (unit assumed). How it is done: Karpas-299 (0.5×10^6) tumor cells in RPMI-1640 media were aseptically injected into the subcutaneous space in the right dorsal flank of CB17 SCID female mice (Charles Rive Lab) using a 26 G ⅝ needle. Karpas-299 is a CD30+ human large T cell lymphoma cell line and was obtained from DSMZ (Braunschweig, Germany).
as §1, §2, §3, §4, §5, §6

Assay [3] deals with SR-786 tumor cells (CD30+ human large T cell lymphoma cell line). The assay can be described thus: SR-786 subcutaneous xenograft tumor efficacy model in CB17 SCID mice. To be noted: for Average tumor volume day 21: in mm³ (unit assumed). How it is done:
SR-786 (6.0×10^6) tumor cells in RPMI-1640 media were aseptically injected into the subcutaneous space in the right dorsal flank of CB17 SCID female mice (Charles River Lab) using a 26 G ⅝ needle. SR-786 is a CD30+ human large T cell lymphoma cell line and was obtained from DSMZ (Braunschweig, Germany).
as §1, §2, §3, §4, §5, §6

Where [4] appears, read: compound of formula (IV) 2 mg/kg BIW IV.
The mark [5] stands for this setting: compound of formula (IV) 2 mg/kg IV.
The mark [6] stands for this setting: compound of formula (IV) 8 mg/kg BIW IV.
[7] abbreviates: compound of formula (IV) 8 mg/kg IV.
The mark [8] stands for this setting: SGN-35 0.2 mg/kg IP, compared to the control vehicle group.
[9] abbreviates: SGN-35 0.4 mg/kg IP, compared to the control vehicle group.
The mark [10] stands for this setting: SGN-35 0.8 mg/kg IP, compared to the control vehicle group.

As for `CC(C)C[C@H](NC(=O)CNC(=O)c1cc(Cl)ccc1Cl)B(O)O` [compound of formula (IV), [(1R)-1-({[(2,5-dichlorobenzoyl)amino]acetyl}amino)-3-methylbutyl]boronic acid], the “Average tumor volume day 24” value in assay [1] (setting [4]) came to 1449.3; in assay [1] (setting [6]), 1129.5. Besides, the tumor growth inhibition in assay [1] (setting [5]) is 6%; in assay [1] (setting [7]) it was 26%; in assay [2] (setting [5]), −16%; in assay [2] (setting [7]) it was −43%; in assay [3] (setting [5]) it was 10%; in assay [3] (setting [7]) it was 63%. The “day on which group was sacrificed” value in assay [1] (two compound of formula (IV) treated groups (Group 2 and 3; 2 mg/kg and 8 mg/kg)) was determined as 27 days. Moreover, the “Average tumor volume day 14” value was 1600 in assay [2] (setting [4]) and 1971.5 in assay [2] (setting [6]). In assay [2] (compound of formula (IV) single agent groups (2 mg/kg and 8 mg/kg)), the “day on which group was sacrificed due to high tumor burden” value worked out at 14 days. Also, the results for the “Average tumor volume day 21” value in assay [3] (setting [4]) and in assay [3] (setting [6]) were 1221.5 and 500.6, respectively.

As for SGN-35, the “day on which group was sacrificed” value stood at 27 days in assay [1] (SGN-35 0.2 mg/kg (Group 4)), 45 days in assay [1] (SGN-35 0.4 mg/kg (Group 5)), 59 days in assay [1] (SGN-35 0.8 mg/kg (Group 6)) and 25 days in assay [2] (SGN-35 0.2 mg/kg single agent). Besides, the tumor growth inhibition in assay [1] (setting [8]) is 12%; in assay [1] (setting [9]) it was 50%; in assay [1] (setting [10]), 82%; in assay [2] (setting [8]) it was 52%; in assay [2] (setting [9]) it was 100%; in assay [2] (setting [10]) it was 100%. Also, the tumor growth inhibition in assay [3] (SGN-35 0.2 mg/kg IP) is given as 3%; in assay [3] (SGN-35 0.4 mg/kg IP), 70%; in assay [3] (SGN-35 0.8 mg/kg IP) it was 100%. For the same compound, the entries for the “Average tumor volume day 24” value in assay [1] (SGN-35 0.2 mg/kg Q4D IP), in assay [1] (SGN-35 0.4 mg/kg Q4D IP) and in assay [1] (SGN-35 0.8 mg/kg Q4D IP) were 1352.3, 774.2 and 274.9, respectively. The entries for the “Average tumor volume day 14” value in assay [2] (SGN-35 0.2 mg/kg Q4D IP), in assay [2] (SGN-35 0.4 mg/kg Q4D IP) and in assay [2] (SGN-35 0.8 mg/kg Q4D IP) were 647.4, 0 and 0, respectively. Besides, the “mice tumor free at day 14” value in assay [2] (SGN-35 0.4 mg/kg single agent) and in assay [2] (SGN-35 0.8 mg/kg single agent) was “All the mice” throughout. Moreover, the entries for the “Average tumor volume day 21” value in assay [3] (SGN-35 0.2 mg/kg Q4D IP), in assay [3] (SGN-35 0.4 mg/kg Q4D IP) and in assay [3] (SGN-35 0.8 mg/kg Q4D IP) were 1330, 409.9 and 0, respectively. For the same compound, the “tumors found in mice on day 76” value in assay [3] (SGN-35 0.8 mg/kg single agent) is “No tumors were found in any mice”. The “mice tumor free on day 21 post treatment” value in assay [3] (SGN-35 0.8 mg/kg single agent (Group 6)) is 7/7.
